Results as given in US10441601B2, “Method for treating schizophrenia” (St. Jude Children's Research Hospital, Inc., priority 2015, dated 2019).

System: TC projections to the ACx
Assay: Whole-cell recordings of TC EPSCs in acute thalamocortical slices, bath application of antipsychotics / Drd2 antagonist
Assay type: cell-based, mouse
Method: Acute primary thalamocortical (TC) slices (400-μm thick) containing the left auditory cortex (ACx) and the left ventral part of the medial geniculate nuclei (MGv) of the thalamus were prepared as previously described^5. […] Primary TC slices were obtained from the left hemisphere by using a slicing angle of 15°.
Whole-cell recordings were obtained from cell bodies of layer (L) 3/4 thalamorecipient neurons in the ACx and thalamic-relay neurons in the MGv. Mice were chosen in a pseudorandom order, without the experimenter's prior knowledge of genotype or treatments. […] Voltage-clamp recordings were made using a Multiclamp 700B (Molecular Devices, Sunnyvale Calif.), digitized (10 kHz), and recorded using the pCLAMP 10.0 software (Molecular Devices, Sunnyvale Calif.). EPSCs were recorded at holding membrane potentials of −70 mV. In all experiments, membrane potentials were corrected for a liquid junction potential of −10 mV. TC excitatory postsynaptic currents (EPSCs) were evoked by current pulses (duration, 100 μs) delivered to the thalamic radiation via tungsten bipolar electrodes. Paired-pulse ratio (PPR) of TC and corticocortical (CC) EPSCs and the NMDAR/AMPAR ratio were measured as described previously^39. To ensure consistent access resistance of the recording electrode during long-term experiments, the peak amplitude of a brief (10-ms) hyperpolarizing test pulse (−5 mV) was monitored, which was given 250 ms after a stimulus. Access resistance (Ra) in recorded neurons was typically 10 to 25 MO.
Acute primary thalamocortical (TC) slices (400 µm thick) containing the auditory cortex (ACx) and the ventral part of the medial geniculate nuclei (MGv) of the thalamus were prepared as previously described^6. […] Primary TC slices were obtained from the left hemisphere by using a slicing angle of 15°.
Whole-cell recordings were obtained from cell bodies of layer (L) 3/4 thalamorecipient neurons in the ACx and thalamic-relay neurons in the MGv. […] Voltage-clamp recordings were made using a Multiclamp 700B, digitized (10 kHz), and recorded using the pCLAMP 10.0 software. EPSCs were recorded at holding membrane potentials of −70 mV. In all experiments, membrane potentials were corrected for a liquid junction potential of −10 mV. TC EPSCs were evoked by current pulses (duration, 100 […]s) delivered to the thalamic radiation via tungsten bipolar electrodes. To ensure consistent access resistance of the recording electrode during long-term experiments, the peak amplitude of a brief (10-ms) hyperpolarizing test pulse (−5 mV) was monitored given 250 ms after a stimulus. Access resistance (Ra) in recorded neurons was typically 10 to 25 MΩ.
In brief, the thalamic radiation of WT mice was stimulated to evoke TC EPSCs with a rise slope of approximately 100 pA/ms. The effect of the antipsychotic agent haloperidol on TC EPSC 30 minutes after its bath application was compared to the preapplication baseline TC EPSC (AH).

O=C(CCCN1CCC(O)(c2ccc(Cl)cc2)CC1)c1ccc(F)cc1 [haloperidol]
Effect on TC EPSCs, haloperidol alone (4-month-old miR-338+/− mice): increased TC EPSCs | Further effect on TC EPSCs after L-741,626 (4-month-old miR-338+/− mice, haloperidol applied on top of L-741,626 20 nM): not further elevated | Sensitivity of TC EPSCs to haloperidol (Df(16)1/+ mice 2 months or younger): not sensitive to haloperidol | Sensitivity of TC projections to haloperidol (Df(16)1/+ mice, age dependence, haloperidol 1 μM): became sensitive to haloperidol (1 µM) only at 3 months of age | Sensitivity of TC projections to haloperidol (Dgcr8+/− mice older than 3 months): sensitive to haloperidol at older than 3 months of age | Sensitivity of TC projections to haloperidol (WT mice, 1.5 to 7 months): not haloperidol-sensitive at any age | Sensitivity of TC projections to haloperidol, age dependence (miR-338+/− mice, 1.5 to 4 months): sensitive to haloperidol in an age-independent manner | Effect on deficit of TC EPSCs (smaller TC EPSCs vs WT) (older Df(16)1/+ mice, haloperidol 1 μM, 30 minutes after bath application): rescued that deficit | Sensitivity of TC projections to haloperidol (younger Dgcr8+/− mice): not sensitive to haloperidol

OC1(c2ccc(Cl)cc2)CCN(Cc2c[nH]c3ccccc23)CC1 [L-741,626]
Effect on TC EPSCs (4-month-old miR-338+/− mice, L-741,626 20 nM): substantially increased
